Values joined by “and” are separate entries in the source; they are usually repeats but may differ in a detail not shown here. Identical values can stand only once.
What was measured:
[1] = test system: MV-4–11 (AML)-xenografted mice; assay: MV-4–11 AML xenograft efficacy and overall survival; format: in vivo; set-up: anti-tumor efficacy in MV-4-11 (AML)-tumor bearing mice in combination with SoC (tumor measurement per animal): unit not given here; settings: for Overall survival of MV-4-11 (AML)-tumor bearing mice: BRD-810 50 mg/kg; for anti-tumor efficacy in MV-4-11 (AML)-tumor bearing mice in combination with SoC (tumor measurement per animal): individual animals, BRD-810 50mg/kg
[2] = test system: THP-1 (AML) xenografted mice; assay: THP-1 AML xenograft efficacy; format: in vivo; set-up: anti-tumor efficacy in THP-1 (AML)-tumor bearing mice, individual measurements: unit not given here

SMILES	Overall survival of MV-4-11 (AML)-tumor bearing mice ([1]; day 0 post treatment start)	Overall survival of MV-4-11 (AML)-tumor bearing mice ([1]; day 1 post treatment start)	anti-tumor efficacy in MV-4-11 (AML)-tumor bearing mice in combination with SoC (tumor measurement per animal) ([1]; day 1 post treatment start)	Overall survival of MV-4-11 (AML)-tumor bearing mice ([1]; day 4 post treatment start)	anti-tumor efficacy in MV-4-11 (AML)-tumor bearing mice in combination with SoC (tumor measurement per animal) ([1]; day 4 post treatment start)	Overall survival of MV-4-11 (AML)-tumor bearing mice ([1]; day 8 post treatment start)	anti-tumor efficacy in MV-4-11 (AML)-tumor bearing mice in combination with SoC (tumor measurement per animal) ([1]; day 8 post treatment start)	Overall survival of MV-4-11 (AML)-tumor bearing mice ([1]; day 11 post treatment start)	anti-tumor efficacy in MV-4-11 (AML)-tumor bearing mice in combination with SoC (tumor measurement per animal) ([1]; day 11 post treatment start)	Overall survival of MV-4-11 (AML)-tumor bearing mice ([1]; day 15 post treatment start)	anti-tumor efficacy in MV-4-11 (AML)-tumor bearing mice in combination with SoC (tumor measurement per animal) ([1]; day 15 post treatment start)	Overall survival of MV-4-11 (AML)-tumor bearing mice ([1]; day 16 post treatment start)	anti-tumor efficacy in MV-4-11 (AML)-tumor bearing mice in combination with SoC (tumor measurement per animal) ([1]; day 16 post treatment start)	Overall survival of MV-4-11 (AML)-tumor bearing mice ([1]; day 17 post treatment start)	anti-tumor efficacy in MV-4-11 (AML)-tumor bearing mice in combination with SoC (tumor measurement per animal) ([1]; day 17 post treatment start)	Overall survival of MV-4-11 (AML)-tumor bearing mice ([1]; day 19 post treatment start)	Overall survival of MV-4-11 (AML)-tumor bearing mice ([1]; day 22 post treatment start)	Overall survival of MV-4-11 (AML)-tumor bearing mice ([1]; day 23 post treatment start)	Overall survival of MV-4-11 (AML)-tumor bearing mice ([1]; day 24 post treatment start)	Overall survival of MV-4-11 (AML)-tumor bearing mice ([1]; day 25 post treatment start)	other results
Nc1ncn([C@@H]2O[C@H](CO)[C@@H](O)[C@H]2O)c(=O)n1 [Azacytidine]	100	100	37.66 and 36.25 and 41.68 and 30.5 and 27.18 and 34.36 and 33.31 and 32.32 and 36.01 and 43.7	100	54.55 and 56.25 and 56.22 and 40.13 and 37.55 and 44.2 and 45.16 and 42.15 and 44.53 and 58.86	100	65.52 and 65.46 and 68.31 and 53.62 and 40.92 and 60.68 and 62.4 and 50.31 and 59.65 and 77.78	100	89.02 and 75.69 and 101.46 and 67.13 and 49.48 and 79.37 and 79.77 and 55.4 and 81.03 and 99.97	100	108.19 and 101.3 and 133.05 and 77.44 and 61.88 and 97.99 and 123.49 and 81.45 and 115.12 and 117.74	100	125.36 and 108.14 and 139.95 and 80.65 and 62.33 and 102.82 and 127.03 and 91.37 and 119.07 and 128.51	100	137.71 and 107.49 and 162.36 and 100.14 and 70.25 and 118.23 and 133.41 and 87.57 and 140.74 and 152.32	0	0	0	0	0	Overall survival of MV-4-11 (AML)-tumor bearing mice ([1]; day 28 post treatment start): 0; Overall survival of MV-4-11 (AML)-tumor bearing mice ([1]; day 30 post treatment start): 0; Overall survival of MV-4-11 (AML)-tumor bearing mice ([1]; day 32 post treatment start): 0; Overall survival of MV-4-11 (AML)-tumor bearing mice ([1]; day 34 post treatment start): 0; Overall survival of MV-4-11 (AML)-tumor bearing mice ([1]; day 37 post treatment start): 0; Overall survival of MV-4-11 (AML)-tumor bearing mice ([1]; day 39 post treatment start): 0; Overall survival of MV-4-11 (AML)-tumor bearing mice ([1]; day 41 post treatment start): 0; Overall survival of MV-4-11 (AML)-tumor bearing mice ([1]; day 44 post treatment start): 0; Overall survival of MV-4-11 (AML)-tumor bearing mice ([1]; day 46 post treatment start): 0; Overall survival of MV-4-11 (AML)-tumor bearing mice ([1]; day 48 post treatment start): 0; Overall survival of MV-4-11 (AML)-tumor bearing mice ([1]; day 51 post treatment start): 0; Overall survival of MV-4-11 (AML)-tumor bearing mice ([1]; day 53 post treatment start): 0
Nc1ccn([C@@H]2O[C@H](CO)[C@@H](O)[C@@H]2O)c(=O)n1 [cytarabine]																					Antitumor efficacy, single agent ([2]; 45 mg kg^−1 subcutaneous, 3 days on, 4 days off): neither the Bcl-2 inhibitor venetoclax nor cytarabine showed appreciable single-agent efficacy; anti-tumor efficacy in THP-1 (AML)-tumor bearing mice, individual measurements ([2]; Cytarabine, day 1 post treatment start, animals #3001-#3010): 34.55 and 34.13 and 35.27 and 36.61 and 37.97 and 29.56 and 32.2 and 26.85 and 39.7 and 33.08; anti-tumor efficacy in THP-1 (AML)-tumor bearing mice, individual measurements ([2]; Cytarabine, day 3 post treatment start, animals #3001-#3010): 56.73 and 43.71 and 46.59 and 40.5 and 59.56 and 37.55 and 48.92 and 32.47 and 41.3 and 50.46; anti-tumor efficacy in THP-1 (AML)-tumor bearing mice, individual measurements ([2]; Cytarabine, day 6 post treatment start, animals #3001-#3010): 60.86 and 46.12 and 47.28 and 41.77 and 70.74 and 42.28 and 63.75 and 27.68 and 36.96 and 52.92; anti-tumor efficacy in THP-1 (AML)-tumor bearing mice, individual measurements ([2]; Cytarabine, day 8 post treatment start, animals #3001-#3010): 80.75 and 48.31 and 57.33 and 37.06 and 69.84 and 40.98 and 72.57 and 28.68 and 37.62 and 62.2; anti-tumor efficacy in THP-1 (AML)-tumor bearing mice, individual measurements ([2]; Cytarabine, day 10 post treatment start, animals #3001-#3010): 87.52 and 55.21 and 72.45 and 39.84 and 85.66 and 45.49 and 94.07 and 29.37 and 34.83 and 74.1; anti-tumor efficacy in THP-1 (AML)-tumor bearing mice, individual measurements ([2]; Cytarabine, day 13 post treatment start, animals #3001-#3010): 101.88 and 64.15 and 91.89 and 43.02 and 99.25 and 47.84 and 115.35 and 31.51 and 35.25 and 76.99
CC1(C)CCC(CN2CCN(c3ccc(C(=O)NS(=O)(=O)c4ccc(NCC5CCOCC5)c([N+](=O)[O-])c4)c(Oc4cnc5[nH]ccc5c4)c3)CC2)=C(c2ccc(Cl)cc2)C1 [venetoclax]	100	100	33.13 and 28.19 and 34.15 and 35.82 and 29.42 and 37.09 and 44.34 and 37.28 and 33.74 and 41.97	100	32.39 and 37.39 and 43.94 and 50.14 and 32.53 and 44.14 and 52.92 and 48.8 and 41.66 and 49.99	100	41.04 and 57.44 and 59.24 and 62.99 and 49.55 and 52.42 and 59.83 and 53.52 and 48.45 and 66.98	100	47.19 and 72.26 and 75.92 and 72.38 and 72.25 and 70.02 and 85.2 and 60.52 and 70.23 and 97.04	100	63.44 and 101.62 and 98.93 and 111.48 and 113.46 and 108.85 and 111.46 and 76.94 and 80.71 and 124.01	100	66 and 108.03 and 100.41 and 123.76 and 112.88 and 118.57 and 116.35 and 89.12 and 87.16 and 125.05	0	74.19 and 130.91 and 105.55 and 136.78 and 132.34 and 126.42 and 134.13 and 95.37 and 110.48 and 139.48	0	0	0	0	0	Antitumor efficacy, single agent ([2]; 100 mg kg^−1 orally, daily): neither the Bcl-2 inhibitor venetoclax nor cytarabine showed appreciable single-agent efficacy; anti-tumor efficacy in THP-1 (AML)-tumor bearing mice, individual measurements ([2]; Venetoclax, day 1 post treatment start, animals #5001-#5010): 36.27 and 38.57 and 29.6 and 32.89 and 34.28 and 28.35 and 32.76 and 34.15 and 38.81 and 36.79; anti-tumor efficacy in THP-1 (AML)-tumor bearing mice, individual measurements ([2]; Venetoclax, day 3 post treatment start, animals #5001-#5010): 46.08 and 62.31 and 36.23 and 49.99 and 71.57 and 33.25 and 37.51 and 51.73 and 48.97 and 53.06; anti-tumor efficacy in THP-1 (AML)-tumor bearing mice, individual measurements ([2]; Venetoclax, day 6 post treatment start, animals #5001-#5010): 58.2 and 76.5 and 34.06 and 66.44 and 87.06 and 33.28 and 39.03 and 72.1 and 63 and 57.59; anti-tumor efficacy in THP-1 (AML)-tumor bearing mice, individual measurements ([2]; Venetoclax, day 8 post treatment start, animals #5001-#5010): 70.38 and 85.8 and 36.3 and 78.87 and 103.9 and 36.38 and 41.14 and 85.31 and 91.47 and 80.8; anti-tumor efficacy in THP-1 (AML)-tumor bearing mice, individual measurements ([2]; Venetoclax, day 10 post treatment start, animals #5001-#5010): 100.62 and 113 and 44.66 and 100.81 and 143.73 and 36.12 and 44.28 and 122.17 and 124.4 and 110.66; anti-tumor efficacy in THP-1 (AML)-tumor bearing mice, individual measurements ([2]; Venetoclax, day 13 post treatment start, animals #5001-#5010): 129.99 and 188.46 and 53.9 and 147.24 and 211.83 and 41.12 and 60.34 and 168.23 and 177.94 and 148.93; Overall survival of MV-4-11 (AML)-tumor bearing mice ([1]; day 28 post treatment start): 0; Overall survival of MV-4-11 (AML)-tumor bearing mice ([1]; day 30 post treatment start): 0; Overall survival of MV-4-11 (AML)-tumor bearing mice ([1]; day 32 post treatment start): 0; Overall survival of MV-4-11 (AML)-tumor bearing mice ([1]; day 34 post treatment start): 0; Overall survival of MV-4-11 (AML)-tumor bearing mice ([1]; day 37 post treatment start): 0; Overall survival of MV-4-11 (AML)-tumor bearing mice ([1]; day 39 post treatment start): 0; Overall survival of MV-4-11 (AML)-tumor bearing mice ([1]; day 41 post treatment start): 0; Overall survival of MV-4-11 (AML)-tumor bearing mice ([1]; day 44 post treatment start): 0; Overall survival of MV-4-11 (AML)-tumor bearing mice ([1]; day 46 post treatment start): 0; Overall survival of MV-4-11 (AML)-tumor bearing mice ([1]; day 48 post treatment start): 0; Overall survival of MV-4-11 (AML)-tumor bearing mice ([1]; day 51 post treatment start): 0; Overall survival of MV-4-11 (AML)-tumor bearing mice ([1]; day 53 post treatment start): 0
